# Reference: patent US20250145665A1, “MACROCYCLIC PEPTIDES USEFUL AS MODULATORS OF TNF ALPHA” (Bristol-Myers Squibb Company, priority 2023, published 2025)
# Starred links: 1 amine or outer side, 2 acyl side, 3 side chain; linkers in the order of their positions; H or OH if unused. Positions of bridges follow the written chain, without caps; N, C: chain ends. Non-standard residues stand in square brackets, D forms with d. Residues, ends and D or L forms follow the SMILES beside them. *: point of attachment. X65 = O=C(O)Cc1cccc(NC(=O)c2ccc(-c3ccc(C[C@H](N[*:1])C(=O)[*:2])cc3)cc2)c1; X38 = O=C(O)C1CCC(C(=O)Nc2ccc(-c3ccc(C[C@H](N[*:1])C(=O)[*:2])cc3)cc2)CC1; Bip(4'-NHBz) = N[C@@H](Cc1ccc(-c2ccc(NC(=O)c3ccccc3)cc2)cc1)C(=O)O; Bip(4'-NH) = O=C([C@H](Cc1ccc(-c2ccc(N[*:3])cc2)cc1)N[*:1])[*:2]; Bip(4'-CONHMe) = CNC(=O)c1ccc(-c2ccc(C[C@H](N)C(=O)O)cc2)cc1; Bip(4'-COOH) = N[C@@H](Cc1ccc(-c2ccc(C(=O)O)cc2)cc1)C(=O)O; Bip(4'-NHAc) = CC(=O)Nc1ccc(-c2ccc(C[C@H](N)C(=O)O)cc2)cc1; Phe(3-CH2NH2) = O=C([C@H](Cc1cccc(CN[*:3])c1)N[*:1])[*:2]; Ala(morpholin-4-yl) = N[C@@H](CN1CCOCC1)C(=O)O; Benzoyl(3-OCH2COOH) = O=C(O)COc1cccc(C(=O)*)c1; Phe(3-CONH2) = NC(=O)c1cccc(C[C@H](N)C(=O)O)c1; Bip = N[C@@H](Cc1ccc(-c2ccccc2)cc1)C(=O)O; Val(3-OH) = CC(C)(O)[C@H](N)C(=O)O; h4Pal = N[C@@H](CCc1ccncc1)C(=O)O; 2Pal = N[C@@H](Cc1ccccn1)C(=O)O; 3Pal = N[C@@H](Cc1cccnc1)C(=O)O; 4Pal = N[C@@H](Cc1ccncc1)C(=O)O; Tic = O=C(O)[C@@H]1Cc2ccccc2CN1; Cha = N[C@@H](CC1CCCCC1)C(=O)O; Tle = CC(C)(C)[C@H](N)C(=O)O; Sar = CNCC(=O)O
# Biological target: TNFα (Homo sapiens, UniProt P01375)
# Experiment: TNF-Induced HEK-Blue Assay
# Format: cell-based
# Details: not given
# TNFα, sequence (P01375 77-233 limits assumed): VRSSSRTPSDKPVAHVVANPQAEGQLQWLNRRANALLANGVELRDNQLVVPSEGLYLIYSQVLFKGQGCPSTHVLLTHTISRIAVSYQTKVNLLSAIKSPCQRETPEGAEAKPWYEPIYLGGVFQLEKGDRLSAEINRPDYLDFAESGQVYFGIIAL
row,Structure (SMILES),IC50
1,CC(C)C[C@@H]1NC(=O)[C@H](Cc2ccc(O)cc2)NC(=O)[C@H](C(C)C)NC(=O)[C@@H]2Cc3ccccc3CN2C(=O)[C@H](C(C)C)NC(=O)[C@@H](CCCNC(=N)N)NC(=O)[C@H](CC(=O)O)NC(=O)[C@@H]2CCCN2C(=O)CN(C)C(=O)[C@H](Cc2ccc(-c3ccc(NC(=O)c4ccccc4)cc3)cc2)NC(=O)[C@H](Cc2ccc(-c3ccc(C(=O)O)cc3)cc2)NC(=O)[C@H](CC2CCCCC2)NC(=O)CSC[C@@H](C(=O)NCC(N)=O)NC1=O [Example 383] ({CH2CO}-[Cha][Bip(4'-COOH)][Bip(4'-NHBz)][Sar]PD[dR]V[Tic]VYLCG-NH2; thioether N-13),50 to 200 nM

# Same assay, conditions: HEK-Blue-CD40L cells, NF-kB-driven secreted alkaline phosphatase reporter; TNFα 0.5 ng/ml; 18 h; read-out: TNF induced HEK-Blue assay IC50 value
row,IC50,Structure (SMILES)
1,50 to 200 nM,CC[C@H](C)[C@@H]1NC(=O)[C@@H](CCCNC(=N)N)NC(=O)[C@H](CC(=O)O)NC(=O)[C@H](Cc2cnc[nH]2)NC(=O)CN(C)C(=O)[C@H](Cc2ccc(-c3ccc(NC(=O)C4CCC(C(=O)O)CC4)cc3)cc2)NC(=O)[C@H](Cc2ccc(-c3ccccc3)cc2)NC(=O)[C@H](CC2CCCCC2)NC(=O)CSC[C@@H](C(=O)NCC(N)=O)NC(=O)[C@H](CC(C)C)NC(=O)[C@H](Cc2cnc[nH]2)NC(=O)[C@H](C(C)C)NC(=O)[C@@H]2CCCN2C1=O (stereo partly shown) [Example 316] ({CH2CO}-[Cha][Bip][X38][Sar]HD[dR]IPVHLCG-NH2; thioether N-13)
2,< 50 nM,CC[C@H](C)[C@@H]1NC(=O)[C@@H](CCCNC(=N)N)NC(=O)[C@H](CC(=O)O)NC(=O)[C@H](Cc2cnc[nH]2)NC(=O)CN(C)C(=O)[C@H](Cc2ccc(-c3ccc(NC(=O)c4cccc(OCC(=O)O)c4)cc3)cc2)NC(=O)[C@H](Cc2ccc(-c3ccccc3)cc2)NC(=O)[C@H](CC2CCCCC2)NC(=O)CSC[C@@H](C(=O)NCC(N)=O)NC(=O)[C@H](CC(C)C)NC(=O)[C@H](Cc2c[nH]cn2)NC(=O)[C@H](C(C)C)NC(=O)[C@@H]2Cc3ccccc3CN2C1=O [Example 515] ({CH2CO}-[Cha][Bip][Bip(4'-NH)](Benzoyl(3-OCH2COOH))[Sar]HD[dR]I[Tic]VHLCG-NH2; thioether N-13)
3,200 to 2000 nM,CC(C)C[C@@H]1NC(=O)[C@H](CCCNC(=N)N)NC(=O)[C@H](C(C)C)NC(=O)[C@@H]2CCCN2C(=O)[C@H](C(C)C)NC(=O)[C@H](CCCNC(=N)N)NC(=O)[C@H](CC(=O)O)NC(=O)[C@@H]2CCCN2C(=O)CN(C)C(=O)[C@H](Cc2ccc(-c3ccccc3)cc2)NC(=O)[C@H](Cc2ccc(-c3ccccc3)cc2)NC(=O)[C@H](CCc2ccncc2)NC(=O)CSC[C@@H](C(=O)NCC(N)=O)NC1=O [Example 10] ({CH2CO}-[h4Pal][Bip][Bip][Sar]PDRVPVRLCG-NH2; thioether N-13)
4,< 50 nM,CC(C)C[C@@H]1NC(=O)[C@H](Cc2ccc(O)cc2)NC(=O)[C@H](C(C)C)NC(=O)[C@@H]2Cc3ccccc3CN2C(=O)[C@H](CC(N)=O)NC(=O)[C@@H](CCCNC(=N)N)NC(=O)[C@H](CC(=O)O)NC(=O)[C@H](Cc2ccc(O)cc2)NC(=O)CN(C)C(=O)[C@H](Cc2ccc(-c3ccccc3)cc2)NC(=O)[C@H](Cc2ccc(-c3ccc(C(=O)O)cc3)cc2)NC(=O)[C@H](CN2CCOCC2)NC(=O)CSC[C@@H](C(=O)NCC(N)=O)NC1=O [Example 146] ({CH2CO}-[Ala(morpholin-4-yl)][Bip(4'-COOH)][Bip][Sar]YD[dR]N[Tic]VYLCG-NH2; thioether N-13)
5,< 50 nM,CC[C@H](C)[C@@H]1NC(=O)[C@@H]2CCCN2C(=O)[C@H]([C@@H](C)CC)NC(=O)[C@@H](CCCNC(=N)N)NC(=O)[C@H](CC(=O)O)NC(=O)[C@H](Cc2ccccc2)NC(=O)CN(C)C(=O)[C@H](Cc2ccc(-c3ccc(NC(C)=O)cc3)cc2)NC(=O)[C@H](Cc2ccc(-c3ccc(C(=O)NC)cc3)cc2)NC(=O)[C@H](C(C)(C)C)NC(=O)CSC[C@@H](C(=O)NCC(N)=O)NC(=O)[C@H](CC(C)C)NC(=O)[C@H](Cc2cnc[nH]2)NC1=O [Example 385] ({CH2CO}-[Tle][Bip(4'-CONHMe)][Bip(4'-NHAc)][Sar]FD[dR]IPIHLCG-NH2; thioether N-13)
6,200 to 2000 nM,CC(C)C[C@@H]1NC(=O)[C@H](CCCNC(=N)N)NC(=O)[C@H](C(C)C)NC(=O)[C@@H]2CCCN2C(=O)[C@H](C(C)C)NC(=O)[C@H](CCCNC(=N)N)NC(=O)[C@H](CC(=O)O)NC(=O)[C@@H]2CCCN2C(=O)CN(C)C(=O)[C@H](Cc2ccc(-c3ccccc3)cc2)NC(=O)[C@H](Cc2ccc(-c3ccccc3)cc2)NC(=O)[C@H](CCCCN)NC(=O)CSC[C@@H](C(=O)NCC(N)=O)NC1=O [Example 6] ({CH2CO}-K[Bip][Bip][Sar]PDRVPVRLCG-NH2; thioether N-13)
7,200 to 2000 nM,CC(C)C[C@@H]1NC(=O)[C@H](Cc2ccc(O)cc2)NC(=O)[C@H](C(C)C)NC(=O)[C@@H]2CCCN2C(=O)[C@H](Cc2ccc(O)cc2)NC(=O)[C@H](CCCNC(=N)N)NC(=O)[C@H](CC(=O)O)NC(=O)[C@@H]2CCCN2C(=O)CN(C)C(=O)[C@H](Cc2ccc(-c3ccccc3)cc2)NC(=O)[C@H](Cc2ccc(-c3ccccc3)cc2)NC(=O)[C@H](C(C)(C)O)NC(=O)CSC[C@@H](C(=O)NCC(N)=O)NC1=O [Example 111] ({CH2CO}-[Val(3-OH)][Bip][Bip][Sar]PDRYPVYLCG-NH2; thioether N-13)
8,< 50 nM,CC(=O)Nc1ccc(-c2ccc(C[C@@H]3NC(=O)[C@H](Cc4ccc(-c5ccccc5)cc4)NC(=O)[C@H](CN4CCOCC4)NC(=O)CSC[C@@H](C(=O)NCC(N)=O)NC(=O)[C@H](CC(C)C)NC(=O)[C@H](Cc4cccnc4)NC(=O)[C@H](C(C)C)NC(=O)[C@@H]4CCCN4C(=O)[C@H](C(C)C)NC(=O)[C@@H](CCCNC(=N)N)NC(=O)[C@H](CC(=O)O)NC(=O)[C@H](Cc4ccc(O)cc4)NC(=O)CN(C)C3=O)cc2)cc1 [Example 223] ({CH2CO}-[Ala(morpholin-4-yl)][Bip][Bip(4'-NHAc)][Sar]YD[dR]VPV[3Pal]LCG-NH2; thioether N-13)
9,200 to 2000 nM,CC(C)C[C@@H]1NC(=O)[C@H](CCCCN)NC(=O)[C@H](C(C)C)NC(=O)[C@@H]2CCCN2C(=O)[C@H](C(C)C)NC(=O)[C@H](CCCNC(=N)N)NC(=O)[C@H](CC(=O)O)NC(=O)[C@@H]2CCCN2C(=O)CN(C)C(=O)[C@H](Cc2ccc(-c3ccccc3)cc2)NC(=O)[C@H](Cc2ccc(-c3ccccc3)cc2)NC(=O)[C@H](Cc2ccccc2)NC(=O)CSC[C@@H](C(=O)NCC(N)=O)NC1=O [Example 3] ({CH2CO}-F[Bip][Bip][Sar]PDRVPVKLCG-NH2; thioether N-13)
10,200 to 2000 nM,CC(C)C[C@@H]1NC(=O)[C@H](CCCNC(=N)N)NC(=O)[C@H](C(C)C)NC(=O)[C@@H]2CCCN2C(=O)[C@H](C(C)C)NC(=O)[C@H](CCCNC(=N)N)NC(=O)[C@H](CC(=O)O)NC(=O)[C@@H]2CCCN2C(=O)CN(C)C(=O)[C@H](Cc2ccc(-c3ccccc3)cc2)NC(=O)[C@H](Cc2ccc(-c3ccccc3)cc2)NC(=O)[C@H](Cc2ccncc2)NC(=O)CSC[C@@H](C(=O)NCC(N)=O)NC1=O [Example 11] ({CH2CO}-[4Pal][Bip][Bip][Sar]PDRVPVRLCG-NH2; thioether N-13)
11,50 to 200 nM,CC(=O)Nc1ccc(-c2ccc(C[C@@H]3NC(=O)[C@H](Cc4ccc(-c5ccccc5)cc4)NC(=O)[C@H](CN4CCOCC4)NC(=O)CSC[C@@H](C(=O)NCC(N)=O)NC(=O)[C@H](CC(C)C)NC(=O)[C@H](Cc4cccc(C(N)=O)c4)NC(=O)[C@H](C(C)C)NC(=O)[C@@H]4CCCN4C(=O)[C@H](C(C)C)NC(=O)[C@@H](CCCNC(=N)N)NC(=O)[C@H](CC(=O)O)NC(=O)[C@@H]4CCCN4C(=O)CN(C)C3=O)cc2)cc1 [Example 311] ({CH2CO}-[Ala(morpholin-4-yl)][Bip][Bip(4'-NHAc)][Sar]PD[dR]VPV[Phe(3-CONH2)]LCG-NH2; thioether N-13)
12,50 to 200 nM,CC(C)C[C@@H]1NC(=O)[C@H](Cc2ccc(O)cc2)NC(=O)[C@H](C(C)C)NC(=O)[C@@H]2Cc3ccccc3CN2C(=O)[C@H](C(C)C)NC(=O)[C@@H](CCCNC(=N)N)NC(=O)[C@H](CC(=O)O)NC(=O)[C@@H]2CCCN2C(=O)CN(C)C(=O)[C@H](Cc2ccc(-c3ccc(NC(=O)c4cccc(OCC(=O)O)c4)cc3)cc2)NC(=O)[C@H](Cc2ccc(-c3ccc(C(=O)O)cc3)cc2)NC(=O)[C@H](CC2CCCCC2)NC(=O)CSC[C@@H](C(=O)NCC(N)=O)NC1=O [Example 369] ({CH2CO}-[Cha][Bip(4'-COOH)][Bip(4'-NH)](Benzoyl(3-OCH2COOH))[Sar]PD[dR]V[Tic]VYLCG-NH2; thioether N-13)
13,50 to 200 nM,CC[C@H](C)[C@@H]1NC(=O)[C@@H](CCCNC(=N)N)NC(=O)[C@H](CC(=O)O)NC(=O)[C@H](Cc2cnc[nH]2)NC(=O)CN(C)C(=O)[C@H](Cc2ccc(-c3ccc(C(=O)Nc4cccc(CC(=O)O)c4)cc3)cc2)NC(=O)[C@H](Cc2ccc(-c3ccc(C(=O)O)cc3)cc2)NC(=O)[C@H](CC2CCCCC2)NC(=O)CSC[C@@H](C(=O)NCC(N)=O)NC(=O)[C@H](CC(C)C)NC(=O)[C@H](Cc2cnc[nH]2)NC(=O)[C@H](C(C)C)NC(=O)[C@@H]2CCCN2C1=O [Example 630] ({CH2CO}-[Cha][Bip(4'-COOH)][X65][Sar]HD[dR]IPVHLCG-NH2; thioether N-13)
14,50 to 200 nM,CC(C)C[C@@H]1NC(=O)[C@H](CCCNC(=N)N)NC(=O)[C@H](C(C)C)NC(=O)[C@@H]2CCCN2C(=O)[C@H](C(C)C)NC(=O)[C@H](CCCNC(=N)N)NC(=O)[C@H](CC(=O)O)NC(=O)[C@@H]2CCCN2C(=O)CN(C)C(=O)[C@H](Cc2ccc(-c3ccccc3)cc2)NC(=O)[C@H](Cc2ccc(-c3ccccc3)cc2)NC(=O)[C@H](CN2CCOCC2)NC(=O)CSC[C@@H](C(=O)NCC(N)=O)NC1=O [Example 32] ({CH2CO}-[Ala(morpholin-4-yl)][Bip][Bip][Sar]PDRVPVRLCG-NH2; thioether N-13)
15,< 50 nM,CC(=O)Nc1ccc(-c2ccc(C[C@@H]3NC(=O)[C@H](Cc4ccc(-c5ccccc5)cc4)NC(=O)[C@H](CN4CCOCC4)NC(=O)CSC[C@@H](C(=O)NCC(N)=O)NC(=O)[C@H](CC(C)C)NC(=O)[C@H](Cc4cccc(CN)c4)NC(=O)[C@H](C(C)C)NC(=O)[C@@H]4CCCN4C(=O)[C@H](C(C)C)NC(=O)[C@@H](CCCNC(=N)N)NC(=O)[C@H](CC(=O)O)NC(=O)[C@H](Cc4ccccn4)NC(=O)CN(C)C3=O)cc2)cc1 [Example 171] ({CH2CO}-[Ala(morpholin-4-yl)][Bip][Bip(4'-NHAc)][Sar][2Pal]D[dR]VPV[Phe(3-CH2NH2)]LCG-NH2; thioether N-13)
